{
  "source": "patent US7271158B2",
  "about": "“Treatment of rumen acidosis with α-amylase inhibitors” (Pfizer Inc., priority 2000, dated 2007)",
  "key": {"[1]": {"molecular_target": "rumen fluid supernatant amylases", "assay": "Rumen bacterial amylase assay, protocol 2 (amylose azure)", "settings": "read-out: Average IC50, rumen fluid amylase screen"}, "[2]": {"system": "Salm. enteritidis", "assay": "Minimum inhibitory concentrations in aerobes (agar dilution)"}, "[3]": {"molecular_target": "rumen fluid supernatant amylases", "assay": "Rumen bacterial amylase assay, protocol 1 (Sigma amylase kit 577)", "type": "biochemical, rumen bacteria, Hereford×Friesian calves", "settings": "rumen fluid amylase screen using Sigma kit 577", "from_the_text": "Rumen Bacterial Amylase Assay—Protocol 1\nThe enzymatic reactions involved in the assay are as follows:\n5 ET-G7PNP→(α-amylase)→2 ET-G5+2 G2PNP+2 ET-G4+2 G3PNP+ET-G3+G4-PNP2 G2PNP+2 G3 PNP→(α-glucosidase)→4 PNP +10 glucose\nα-Amylase hydrolyses 4,6-ethylidene-G7-PNP (ET-G7 PNP) to G2, G3 and G4 PNP fragments. α-Glucosidase (α-1,4-glucan glucohydrolase EC 3.2.1.3) hydrolyses G2PNP and G3PNP to yield p-nitrophenol and glucose. Five moles of substrate (ET-G7PNP) is hydrolysed to yield 4 moles of p-nitrophenol p-Nitrophenol absorbs light as 405 nm, and following a two minute lag period the rate of increase in absorbance at 405 nm is directly proportional to α-amylase activity in the well.\nRumen fluid was collected from 4-month-old Hereford×Friesian calves (125–135 kg, supplied by Cwmnant Calves Ltd. Cwmnant. Tregaron. Ceredigion) fed on diet GH 313. The rumen fluid was collected from slaughtered calves into pre-warmed vacuum flasks, as soon as possible after euthanasia. It was then filtered through a double layer of absorbent gauze (Absorbent gauze BP, GAUZ 4 from Robert Bailey plc, Stockport) to remove hay and feed particles. The liquid was centrifuged at a relative centrifugal force of 23,300 for 60 minutes, and the supernatant decanted, avoiding contamination from the loose top layer of the pellet by careful pouring. The supernatant was then aliquoted into 50 ml plastic tubes and frozen at […]. When required for use in an assay the rumen fluid supernatant was thawed by standing the tubes in cold water. Test compounds or controls were dispensed into the 96-well assay plate at 4 μl/well. 100 μl per well of Sigma amylase reagent 577 (made up to half the volume described in the instructions (i.e. 10 ml for a 577-20 vial)) was then added to each well, followed by 100 μl per well of rumen fluid supernatant. A T=0 reading at 405 nm was taken at this stage using an Anthos plate reader. The plate was then incubated at room temperature or 37° C. until an optical density window of approximately 1.000U was seen (typically one hour at 37° C. or three hours at room temperature). A second reading was taken at 405 nm, and the first reading subtracted from it. Active compounds cause a reduction in the optical density readings when compared to the control without the agent being tested."}, "[4]": {"system": "strained rumen liquor", "assay": "In vitro rumen propionic acid screen", "type": "cell-based, Guernsey cow", "settings": "control normalised as 100%; for Total VFA: 6 h incubation; for % Propionate: molar proportion of propionic acid in total VFA", "experimental": "In Vitro Rumen Propionic Acid Screen Rumen Fluid: An eight year old dry Guernsey cow, fitted with a rumen fistula (Bar Diamond Inc. P.O. Box. 60. Bar Diamond Lane. Parma. Id. 83660-0060. […] This animal was used as a source of rumen contents, which were taken at 08:00 h (before the morning feed). The material was carried to the laboratory in a pre-warmed insulated flask, and then strained through four layers of cotton gauze into another pre-warmed bottle, which was stored in an incubator at 40° C. until the fluid was dispensed into the assay tubes. Substrate Mixture: • 68 g corn starch. Ex Sigma Cat. S-4126. • 17 g α-cellulose. Ex Sigma Cat. C-6429. • 15 g Type 1 soya flour. Ex Sigma Cat. S-9633. • Mix well. The assay was conducted in 16 ml Sorvall centrifuge tubes A tablet containing 100 mg of acarbose was placed in 10 ml of buffer and shaken until the tablet was completely disrupted, giving a 10 mg/ml solution of acarbose. […] Control tubes were prepared by replacing the acarbose solution with buffer. One ml of substrate suspension was added to all the assay tubes, followed by 3 ml of warmed degassed buffer and then by 5 ml of strained rumen liquor. Suba-Seal stoppers (No. 29) were fitted, and the head pressure in the tubes reduced by passing a hypodermic needle attached to a vacuum line through the stopper until the tube contents frothed. The tubes were then placed in a 40° C. incubator for 6 hours and shaken hourly. Pre-incubation VFA concentration were determined by preparing three tubes as for incubation but 1 ml metaphosphoric/crotonic acids solution was added immediately following the rumen liquor. These tubes were stored at 4° C. and processed with the post-incubation tubes. The incubation was terminated after 6 h by removing the stoppers and adding 1 ml of metaphosphoric/crotonic acids solution. The tubes were then centrifuged for 8 minutes at 18,000 g at 4° C., and an aliquot of the supernatant stored in an automatic liquid sampler vial until required for VFA analysis by gas chromatography. (as described in […] protocol) Production of total VFA and propionate during the incubation was determined as follows. Firstly, first the pre-incubation concentrations of total VFA and propionic acid were calculated as the mean of the analyses of the pre-incubation samples. Then for each incubated sample, post-minus pre-incubation concentration gave production during incubation. The molar proportion of propionic acid in total VFA.produced during the incubation was also calculated. The total VFA and % propionic acid values were meaned for the replicate tubes, and the mean control total VFA and % propionic acid values normalised as 100%, then the change caused by the test treatments expressed relative to this value."}},
  "data": [
    {"compound": "CC1OC(OC2C(CO)OC(OC3C(CO)OC(O)C(O)C3O)C(O)C2O)C(O)C(O)C1NC1C=C(CO)C(O)C(O)C1O", "note": "(stereo not shown) [Acarbose, acarbose]", "values": [
      {"measurement": "IC50", "setting": "[1]", "value": 2390, "unit": "nM"},
      {"measurement": "MIC", "setting": "[2]; Salm. enteritidis B1218", "value": ">128", "unit": "µg/mL"},
      {"measurement": "MIC", "setting": "[2]; Salm. enteritidis B1227", "value": ">128", "unit": "µg/mL"},
      {"measurement": "MIC", "setting": "[2]; Salm. enteritidis B1231", "value": ">128", "unit": "µg/mL"},
      {"measurement": "MIC", "setting": "[2]; Salm. enteritidis B1232", "value": ">128", "unit": "µg/mL"},
      {"measurement": "MIC", "setting": "[2]; Salm. enteritidis B1233", "value": ">128", "unit": "µg/mL"},
      {"measurement": "MIC", "setting": "[2]; Salm. enteritidis B1235", "value": ">128", "unit": "µg/mL"},
      {"measurement": "MIC", "setting": "[2]; Salm. enteritidis B1240", "value": ">128", "unit": "µg/mL"},
      {"measurement": "MIC", "setting": "[2]; Salmonella enterica, ENTERITIDIS", "value": "> 128", "unit": "µg/mL"},
      {"measurement": "IC50", "setting": "[3]", "value": 2030, "unit": "nM"},
      {"measurement": "Total VFA", "setting": "[4]; dose 0.32 μg/ml", "value": 96, "unit": "%"},
      {"measurement": "% Propionate", "setting": "[4]; dose 0.32 μg/ml", "value": 97, "unit": "%"},
      {"measurement": "Total VFA", "setting": "[4]; dose 1.6 μg/ml", "value": 92, "unit": "%"},
      {"measurement": "% Propionate", "setting": "[4]; dose 1.6 μg/ml", "value": 94, "unit": "%"},
      {"measurement": "Total VFA", "setting": "[4]; dose 8 μg/ml", "value": 72, "unit": "%"},
      {"measurement": "% Propionate", "setting": "[4]; dose 8 μg/ml", "value": 74, "unit": "%"},
      {"measurement": "Total VFA", "setting": "[4]; dose 40 μg/ml", "value": 63, "unit": "%"},
      {"measurement": "% Propionate", "setting": "[4]; dose 40 μg/ml", "value": 74, "unit": "%"},
      {"measurement": "Total VFA", "setting": "[4]; dose 200 μg/ml", "value": 58, "unit": "%"},
      {"measurement": "% Propionate", "setting": "[4]; dose 200 μg/ml", "value": 81, "unit": "%"},
      {"measurement": "Total VFA", "setting": "[4]; dose 1000 μg/ml", "value": 50, "unit": "%"},
      {"measurement": "% Propionate", "setting": "[4]; dose 1000 μg/ml", "value": 88, "unit": "%"}
    ]}
  ]
}
